Data set [1] deals with Bcl3 GI/IVA (DNA, G4) CGGAAAGGCCGGGGGCGGGGAGGCAAACGG
Briefly: CD melting at 284 nm. Particulars: 100 mM K+ (KCl); 10 mM Tris-HCl pH 7.5; 20 μM ligand, ligand:G4 2:1; stabilised.

Data set [2] deals with Bcl3 G6/8A (DNA, G4) CGGGGGGGCCGGAGGCGGAGAGGCGGGCGG
Description: CD melting at 284 nm. Particulars: 100 mM K+ (KCl); 10 mM Tris-HCl pH 7.5; 20 μM ligand, ligand:G4 2:1; stabilised.

Data set [3] deals with Bcl3 G6A (DNA, G4) CGGGGGGGCCGGAGGCGGGGAGGCGGGCGG
Briefly: CD melting at 284 nm. Particulars: 100 mM K+ (KCl); 10 mM Tris-HCl pH 7.5; 20 μM ligand, ligand:G4 2:1; stabilised.

The test system is the same in data set [4]. Briefly: CD melting at 264 nm. Particulars: 100 mM K+ (KCl); 10 mM Tris-HCl pH 7.5; 20 μM ligand, ligand:G4 2:1; stabilised.
For data set [5], the system named is Bcl3 G6/8A (DNA, G4) CGGGGGGGCCGGAGGCGGAGAGGCGGGCGG
Description: CD melting at 264 nm. Particulars: 100 mM K+ (KCl); 10 mM Tris-HCl pH 7.5; 20 μM ligand, ligand:G4 2:1; stabilised.

Data set [6] has as its system Bcl3 GI/IVA (DNA, G4) CGGAAAGGCCGGGGGCGGGGAGGCAAACGG
Briefly: CD melting at 264 nm. Particulars: 100 mM K+ (KCl); 10 mM Tris-HCl pH 7.5; 20 μM ligand, ligand:G4 2:1; stabilised.

Data set [7] concerns dsBcl3 WT (90-bp dsBcl3-G4) (DNA, G4) CAGGAAACCCCTGGGGCGTACGGGTGGCCCCGGGGGGGCCGGGGGCGGGGAGGCGGGCGGCCGGCACCGCCCCGGCCGACAAAAGTCCCT/AGGGACTTTTGTCGGCCGGGGCGGTGCCGGCCGCCCGCCTCCCCGCCCCCGGCCCCCCCGGGGCCACCCGTACGCCCCAGGGGTTTCCTG
Briefly: NMM fluorescence turn-on (610 nm). Particulars: 1 mM K+ (KCl); 10% PEG8000; also 100 mM KCl without PEG; 25 °C; 1 μM NMM, 2 μM DNA.

Data set [8] relates to dsBcl3 G6/8A (DNA, duplex) CAGGAAACCCCTGGGGCGTACGGGTGGCCCCGGGGGGGCCGGAGGCGGAGAGGCGGGCGGCCGGCACCGCCCCGGCCGACAAAAGTCCCT/AGGGACTTTTGTCGGCCGGGGCGGTGCCGGCCGCCCGCCTCTCCGCCTCCGGCCCCCCCGGGGCCACCCGTACGCCCCAGGGGTTTCCTG
Briefly: NMM fluorescence turn-on (610 nm). Particulars: 1 mM K+ (KCl); 10% PEG8000; also 100 mM KCl without PEG; 25 °C; 1 μM NMM, 2 μM DNA; no peak.

In data set [9] the test system is dsBcl3 GI/IVA (DNA, duplex) CAGGAAACCCCTGGGGCGTACGGGTGGCCCCGGAAAGGCCGGGGGCGGGGAGGCAAACGGCCGGCACCGCCCCGGCCGACAAAAGTCCCT/AGGGACTTTTGTCGGCCGGGGCGGTGCCGGCCGTTTGCCTCCCCGCCCCCGGCCTTTCCGGGGCCACCCGTACGCCCCAGGGGTTTCCTG
Briefly: NMM fluorescence turn-on (610 nm). Particulars: 1 mM K+ (KCl); 10% PEG8000; also 100 mM KCl without PEG; 25 °C; 1 μM NMM, 2 μM DNA; no peak.

In data set [10] the test system is Bcl3 promoter WT (30-nt, G-rich positive strand) (DNA, G4) CGGGGGGGCCGGGGGCGGGGAGGCGGGCGG
Briefly: ThT fluorescence turn-on (490 nm). Particulars: 100 mM K+ (KCl); 10 mM Tris-HCl pH 7.5, 25 °C; 0.5 μM ThT, 1 μM DNA.

For data set [11], the target named is T1, SP1 (UniProt P08047 1-785). Briefly: EMSA; annealed in 100 mM KCl; Hill 4.42; EMSA: 10 mM HEPES-NaOH pH 7.3, 50 mM KCl, 5 mM MgCl2, 0.5 mM DTT, 5% glycerol, 0.5 mg/mL BSA, 1 h, gel at 4 C; BLI: PBS, room temperature; oligos annealed in 10 mM Tris-HCl pH 7.5 +/- 100 mM KCl. Particulars: protein: commercial; label: 5' biotin (BLI); G4, parallel, intra- and intermolecular.

In data set [12] the target is T1, SP1. Briefly: BLI; annealed in 100 mM KCl; local 1:1 fit at 457 nM SP1; not truly 1:1; EMSA: 10 mM HEPES-NaOH pH 7.3, 50 mM KCl, 5 mM MgCl2, 0.5 mM DTT, 5% glycerol, 0.5 mg/mL BSA, 1 h, gel at 4 C; BLI: PBS, room temperature; oligos annealed in 10 mM Tris-HCl pH 7.5 +/- 100 mM KCl. Particulars: protein: commercial; label: 5' biotin (BLI); G4, parallel, intra- and intermolecular.

The target of data set [13] is T1, SP1. Briefly: EMSA; annealed without KCl; EMSA: 10 mM HEPES-NaOH pH 7.3, 50 mM KCl, 5 mM MgCl2, 0.5 mM DTT, 5% glycerol, 0.5 mg/mL BSA, 1 h, gel at 4 C; BLI: PBS, room temperature; oligos annealed in 10 mM Tris-HCl pH 7.5 +/- 100 mM KCl. Particulars: protein: commercial; single strand.
For data set [14], the target named is T1, SP1. Description: EMSA; annealed in KCl, purified Inter 1; Hill 3.53; EMSA: 10 mM HEPES-NaOH pH 7.3, 50 mM KCl, 5 mM MgCl2, 0.5 mM DTT, 5% glycerol, 0.5 mg/mL BSA, 1 h, gel at 4 C; BLI: PBS, room temperature; oligos annealed in 10 mM Tris-HCl pH 7.5 +/- 100 mM KCl. Particulars: protein: commercial.
Data set [15] deals with T1, SP1. Description: EMSA; annealed with KCl; Kd only in Fig S13B; EMSA: 10 mM HEPES-NaOH pH 7.3, 50 mM KCl, 5 mM MgCl2, 0.5 mM DTT, 5% glycerol, 0.5 mg/mL BSA, 1 h, gel at 4 C; BLI: PBS, room temperature; oligos annealed in 10 mM Tris-HCl pH 7.5 +/- 100 mM KCl. Particulars: protein: commercial; G4.

T1 sequence (P08047 whole entry): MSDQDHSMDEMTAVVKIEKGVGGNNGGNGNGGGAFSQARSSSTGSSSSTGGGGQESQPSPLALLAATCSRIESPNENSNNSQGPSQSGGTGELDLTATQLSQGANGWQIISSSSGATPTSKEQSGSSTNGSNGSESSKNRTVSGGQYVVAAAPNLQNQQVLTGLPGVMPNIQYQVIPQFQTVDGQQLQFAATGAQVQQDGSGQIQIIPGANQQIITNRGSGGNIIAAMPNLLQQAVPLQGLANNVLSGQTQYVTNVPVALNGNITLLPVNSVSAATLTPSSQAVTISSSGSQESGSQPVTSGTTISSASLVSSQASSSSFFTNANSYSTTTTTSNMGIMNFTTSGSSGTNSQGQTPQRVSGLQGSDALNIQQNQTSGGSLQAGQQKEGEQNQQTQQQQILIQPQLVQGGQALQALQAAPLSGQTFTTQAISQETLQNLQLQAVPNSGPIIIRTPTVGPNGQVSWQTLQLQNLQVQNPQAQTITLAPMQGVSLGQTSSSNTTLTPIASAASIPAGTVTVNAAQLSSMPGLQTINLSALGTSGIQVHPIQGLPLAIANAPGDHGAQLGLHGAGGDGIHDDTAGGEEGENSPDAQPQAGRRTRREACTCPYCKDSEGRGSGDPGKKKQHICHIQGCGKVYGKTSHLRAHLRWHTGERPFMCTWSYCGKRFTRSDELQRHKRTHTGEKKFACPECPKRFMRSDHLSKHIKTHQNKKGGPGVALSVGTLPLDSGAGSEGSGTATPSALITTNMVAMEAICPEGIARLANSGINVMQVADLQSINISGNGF

In the case of `C[n+]1ccc(-c2c3nc(c(-c4cc[n+](C)cc4)c4ccc([nH]4)c(-c4cc[n+](C)cc4)c4nc(c(-c5cc[n+](C)cc5)c5ccc2[nH]5)C=C4)C=C3)cc1`, the binding entry in data set [1], in data set [2] and in data set [3] was “yes” in each case.
Consider `NCCOc1cc(C(=O)Nc2cc(OCCN)c3ccccc3n2)nc(C(=O)Nc2cc(OCCN)c3ccccc3n2)c1`, for which the binding entry in data set [4], in data set [5] and in [6] was “yes” throughout.
`CCc1c(C)c2cc3nc(cc4nc(cc5c(CC)c(C)c(cc1[nH]2)n5C)C(C)=C4CCC(=O)O)C(CCC(=O)O)=C3C`: the binding entry is on record as “yes” in data set [7], “no” in data set [8] and “no” in data set [9].
Turning to `Cc1ccc2c(c1)sc(-c1ccc(N(C)C)cc1)[n+]2C`, the binding result in data set [10] was “yes”.
As to GGGGGCCGGGGGCGGGGAGGCGGG (structured_DNA) [Bcl3 WT 24-nt, annealed with KCl (G4)], the Kd in the data set with SP1 [11] worked out at 19.1 nM; in the data set with SP1 [12], 2.36 nM.
For the molecule GGGUCCGGGCCGGGUGGG (ssRNA) [G4 RNA annealed without KCl], the binding result in the data set with SP1 [13] was “binds”.
Consider AGAGACCGGGGGCGGGGAGACGAG (structured_DNA) [PCNG4 Inter 1, annealed with KCl], for which, in the data set with SP1 [14], binding was characterised by a dissociation constant (Kd) of 24.5 nM.
Turning to GGGUCCGGGCCGGGUGGG (structured_RNA) [G4 RNA (KCl)], the binding result with SP1 [15] is “binds”.

The values are drawn from publication PMC12397910.
